Assay results reported in the Kinase Knowledgebase extract (Sharma et al. 2016).

target: EGFR (UniProt P00533)
Sequence (P00533 whole entry, looked up): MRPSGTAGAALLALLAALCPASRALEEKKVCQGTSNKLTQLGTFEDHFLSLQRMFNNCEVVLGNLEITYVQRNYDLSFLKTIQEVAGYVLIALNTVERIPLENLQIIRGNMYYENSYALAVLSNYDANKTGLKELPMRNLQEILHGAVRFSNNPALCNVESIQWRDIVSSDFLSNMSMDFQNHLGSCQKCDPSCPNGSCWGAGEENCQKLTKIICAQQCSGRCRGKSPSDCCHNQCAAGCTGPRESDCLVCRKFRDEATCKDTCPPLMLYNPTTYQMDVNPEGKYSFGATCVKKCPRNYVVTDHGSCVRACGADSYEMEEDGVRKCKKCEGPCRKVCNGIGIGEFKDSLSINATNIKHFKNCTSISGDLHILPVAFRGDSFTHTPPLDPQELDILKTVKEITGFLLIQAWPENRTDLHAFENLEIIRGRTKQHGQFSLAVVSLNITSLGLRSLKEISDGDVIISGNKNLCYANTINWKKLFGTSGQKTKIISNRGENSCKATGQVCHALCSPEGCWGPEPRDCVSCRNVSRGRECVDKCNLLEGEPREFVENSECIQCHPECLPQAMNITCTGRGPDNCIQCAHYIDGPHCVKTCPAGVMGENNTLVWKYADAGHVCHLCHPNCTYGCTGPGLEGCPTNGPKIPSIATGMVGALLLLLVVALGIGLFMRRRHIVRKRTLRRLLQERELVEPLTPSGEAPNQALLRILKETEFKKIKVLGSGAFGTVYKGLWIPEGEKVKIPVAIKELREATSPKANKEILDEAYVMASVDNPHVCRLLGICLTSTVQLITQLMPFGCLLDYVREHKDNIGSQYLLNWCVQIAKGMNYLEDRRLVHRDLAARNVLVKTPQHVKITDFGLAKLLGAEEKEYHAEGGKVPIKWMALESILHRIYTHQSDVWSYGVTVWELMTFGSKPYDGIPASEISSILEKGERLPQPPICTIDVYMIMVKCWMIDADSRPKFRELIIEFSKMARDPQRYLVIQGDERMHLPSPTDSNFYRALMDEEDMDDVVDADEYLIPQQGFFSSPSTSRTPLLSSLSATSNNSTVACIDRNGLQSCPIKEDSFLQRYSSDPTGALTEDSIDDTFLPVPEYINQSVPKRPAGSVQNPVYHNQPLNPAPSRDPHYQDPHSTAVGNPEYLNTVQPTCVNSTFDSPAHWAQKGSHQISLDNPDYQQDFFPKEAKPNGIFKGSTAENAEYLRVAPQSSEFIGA

Row | Structure (SMILES) | IC50 [nM]
1 | COc1cc2c(Nc3ccc(Br)c(Cl)c3Cl)ncnc2cc1O[C@H]1CO[C@H]2[C@@H]1OC[C@@H]2OC | < 50
2 | COc1cc2c(Nc3cc(Cl)c(Br)cc3F)ncnc2cc1OCC1CN(C)C(C)(C)CO1 (configuration not stated) | < 50
3 | COc1cc2c(Nc3ccc(Cl)c(Cl)c3)ncnc2cc1OCC1CN(C(N)=NC#N)CCO1 (configuration not stated) | < 50
4 | CC[C@@H](C)CN1CCOC(COc2cc3ncnc(Nc4ccc(Cl)c(Cl)c4)c3cc2OC)C1 (some centres not stated) | < 50
5 | COc1cc2c(Nc3cc(Cl)ccc3C)ncnc2cc1O[C@@H]1CO[C@@H]2[C@H]1OC[C@H]2F | < 50
6 | COc1cc2c(Nc3ccc(Cl)c(Cl)c3F)ncnc2cc1OC[C@@H]1CN2CCOC[C@H]2CO1 | < 50
7 | COc1cc2c(Nc3ccc(Cl)c(Cl)c3)ncnc2cc1OCc1nc(-c2ccccn2)cs1 | < 50
8 | COc1cc2c(Nc3cc(C(F)(F)F)ccc3Br)ncnc2cc1O[C@@H]1CO[C@@H]2[C@H]1OC[C@H]2F | < 50
9 | COc1cc2c(Nc3ccc(Cl)c(Cl)c3)ncnc2cc1OCC1CN(CC(N)=O)CCO1 (configuration not stated) | < 50
10 | COc1cc2c(Nc3cc(C(F)(F)F)ccc3Cl)ncnc2cc1O[C@@H]1CO[C@@H]2[C@H]1OC[C@H]2F | < 50
11 | COc1cc2c(Nc3ccc(Cl)c(Cl)c3)ncnc2cc1OCC1CCC1 | < 50
12 | COc1cc(OC)c(Nc2ncnc3cc(O[C@@H]4CO[C@@H]5[C@H]4OC[C@H]5F)c(OC)cc23)cc1Cl | < 50
13 | COc1cc2c(Nc3ccc(Br)c(Cl)c3)ncnc2cc1O[C@H]1CO[C@@H]2[C@H]1OC[C@@H]2NC(C)=O | < 50
14 | COc1cc2c(Nc3ccc(Cl)c(Cl)c3)ncnc2cc1OCC1CN(C(C)C(C)=O)CCO1 (configuration not stated) | < 50
15 | COc1cc2c(Nc3ccc(Cl)c(Cl)c3)ncnc2cc1OCC1CN(C)CCN1C (configuration not stated) | < 50
16 | COc1cc2c(Nc3ccc(Cl)c(Cl)c3)ncnc2cc1OCCNC1CC2CCC(C1)N2C (configuration not stated) | < 50
17 | COc1cc2c(Nc3cc(F)c(Br)c(F)c3)ncnc2cc1OCC1CN(C)CCO1 (configuration not stated) | < 50
18 | COc1cc2c(Nc3ccc(C)c(Cl)c3Cl)ncnc2cc1OCC1CN(C)CCO1 (configuration not stated) | < 50
19 | COc1cc2c(Nc3ccc(Br)c(Cl)c3)ncnc2cc1O[C@@H]1CO[C@@H]2[C@H]1OC[C@@H]2OS(C)(=O)=O | < 50
20 | COc1cc2c(Nc3ccc(Cl)c(Cl)c3)ncnc2cc1OCC1CN(C(=O)C2CCCC2)CCO1 (configuration not stated) | < 50
21 | COCCOc1cc2c(Nc3ccc(Cl)c(Cl)c3)ncnc2cc1OCC1CN(C)CCO1 (configuration not stated) | < 50

Next, values leading:

Row | IC50 [nM] | Structure (SMILES)
22 | < 50 | COc1cc2c(Nc3ccc(Cl)c(Cl)c3)ncnc2cc1OCc1nc(CS(=O)(=O)c2ccccn2)no1
23 | < 50 | COc1cc2c(Nc3ccc(Cl)c(Cl)c3)ncnc2cc1OCc1csc(CN2CCCC2)n1
24 | < 50 | COc1cc2c(Nc3ccc(F)c(Cl)c3)ncnc2cc1O[C@@H]1CO[C@@H]2[C@H]1OC[C@H]2F
25 | < 50 | COc1cc2c(Nc3cccc(F)c3F)ncnc2cc1O[C@@H]1CO[C@@H]2[C@H]1OC[C@H]2F
26 | < 50 | CCCCCN1CCOC(COc2cc3ncnc(Nc4ccc(Cl)c(Cl)c4)c3cc2OC)C1 (configuration not stated)
27 | < 50 | COc1cc2c(Nc3ccc(Br)cc3F)ncnc2cc1OCC1CCN(C(N)=NC#N)CC1
28 | < 50 | CCCCC(CC)C(=O)N1CCOC(COc2cc3ncnc(Nc4ccc(Cl)c(Cl)c4)c3cc2OC)C1 (configuration not stated)
29 | < 50 | COc1cc2c(Nc3ccc(Cl)c(Cl)c3)ncnc2cc1OC[C@H]1CN2CCC[C@@H]2CO1
30 | < 50 | COc1cc2c(Nc3ccc(Cl)c(Cl)c3)ncnc2cc1OCc1csc(N(C)C)n1
31 | < 50 | COc1cc2c(Nc3cc(F)c(Oc4ccc(Cl)cc4)c(F)c3)ncnc2cc1O[C@@H]1CO[C@@H]2[C@H]1OC[C@H]2F
32 | < 50 | COc1cc2c(Nc3ccc(Br)c(Cl)c3C)ncnc2cc1OCC1CN(C)CCO1 (configuration not stated)
33 | < 50 | COc1cc2c(Nc3ccc(Cl)c(Cl)c3)ncnc2cc1OCc1nc(N2CCNCC2)no1
34 | < 50 | COc1cc2c(Nc3ccc(F)c(Cl)c3)ncnc2cc1OCC1CN(C)CCO1 (configuration not stated)
35 | < 50 | CCCCN1CCOC(COc2cc3ncnc(Nc4ccc(Cl)c(Cl)c4)c3cc2OC)C1 (configuration not stated)
36 | < 50 | COc1cc(Nc2ncnc3cc(O[C@@H]4CO[C@@H]5[C@H]4OC[C@H]5F)c(OC)cc23)c(OC)cc1Cl
37 | < 50 | COc1cc2c(Nc3ccc(Cl)c(Cl)c3)ncnc2cc1OCC1CN(C)C(C)(C)CO1 (configuration not stated)
38 | < 50 | COc1cc2c(Nc3cc(Cl)ccc3F)ncnc2cc1O[C@@H]1CO[C@@H]2[C@H]1OC[C@H]2F
39 | < 50 | CN1CCOC(COc2cc3ncnc(Nc4ccc(Cl)c(Cl)c4)c3cc2O)C1 (configuration not stated)
40 | < 50 | COc1cc2c(Nc3ccc(Cl)c(Cl)c3)ncnc2cc1OCc1nc(N2CCN(C(=O)OC(C)(C)C)CC2)no1
41 | < 50 | CCN1CCC(c2nc(COc3cc4ncnc(Nc5ccc(Cl)c(Cl)c5)c4cc3OC)cs2)CC1
42 | < 50 | COc1cc2c(Nc3cc(Cl)c(Br)cc3F)ncnc2cc1OCC1CN(C)CCO1 (configuration not stated)
